Type in all cases: functional, cell-based
The subject of one assay is HepG2. The experiment in a line: Antiproliferative activity against human HepG2 cells.
A further assay concerns KB. The experiment in a line: Antiproliferative activity against human KB cells.
The subject of another assay is K562. The experiment in a line: Antiproliferative activity against human K562 cells.
In another assay the test system is HEK293. Kind of assay: Antiproliferative activity against human HEK293 cells.
For assay [1], the system named is MDA-MB-231. Kind of assay: Antiproliferative activity against human MDA-MB-231 cells. The note with it: Homo sapiens, MDA-MB-231.
A further assay deals with A549. The experiment in a line: Antiproliferative activity against human A549 cells.
In the next assay the test system is COLO 205. The experiment in a line: Antiproliferative activity against human COLO 205 cells.
Another assay relates to A-431. Kind of assay: Antiproliferative activity against human A-431 cells.
The next assay deals with PC-3. The experiment in a line: Antiproliferative activity against human PC-3 cells.
A further assay relates to HL-60. The experiment in a line: Antiproliferative activity against human HL-60 cells assessed as reduction in cell viability measured after 72 hrs. The note with it: HL-60, time 72 hrs.
The subject of another assay is P388/ADR. Kind of assay: Antiproliferative activity against mouse P388/ADR cells assessed as reduction in cell viability measured after 72 hrs. The note with it: time 72 hrs.
Assay [2] is described as follows: Antiproliferative activity against mouse P388 cells assessed as reduction in cell viability measured after 72 hrs. As to conditions: time 72 hrs.
The test system of assay [3] is MDA-MB-231. Kind of assay: Antiproliferative activity against human MDA-MB-231 cells assessed as reduction in cell viability.
For a further assay, the system named is HCT-116. Kind of assay: Antiproliferative activity against human HCT-116 cells assessed as reduction in cell viability. As to conditions: Homo sapiens, HCT-116.
The next assay has as its system HT-29. The experiment in a line: Antiproliferative activity against human HT-29 cells assessed as reduction in cell viability.

With `CC1=CN([C@H]2C[C@H](n3cc(-c4cccc(NC(=O)CCC(=O)O[C@@H]5O[C@@H]6O[C@@]7(C)CC[C@H]8[C@H](C)CC[C@@H]([C@H]5C)[C@@]68OO7)c4)nn3)[C@@H](CO)O2)C(C)NC1=O` (stereo partly drawn), the IC50 in the assay on HepG2 and in the assay with KB was 47.6 µM in each case.

Take `Cc1cn([C@H]2C[C@H](n3cc(CNC(=O)CCCC(=O)O[C@@H]4O[C@@H]5O[C@@]6(C)CC[C@H]7[C@H](C)CC[C@@H]([C@H]4C)[C@@]57OO6)nn3)[C@@H](CO)O2)c(=O)[nH]c1=O`: the IC50 in the assay on HepG2 and with KB was 47.6 µM throughout.

Consider `Cc1cn([C@H]2C[C@H](n3cc(COC(=O)CCCC(=O)O[C@@H]4O[C@@H]5O[C@@]6(C)CC[C@H]7[C@H](C)CC[C@@H]([C@H]4C)[C@@]57OO6)nn3)[C@@H](CO)O2)c(=O)[nH]c1=O`, for which the IC50 with HepG2 and with KB was 16.5 µM in each case.

As to `CC(=O)c1ccccc1-n1cc(CO[C@H]2O[C@@H]3O[C@]4(C)OO[C@]35[C@@H](CC[C@@H](C)[C@@H]5C[C@H]4O)[C@H]2C)nn1`, the IC50 in the assay on K562, in the assay on HEK293, in the assay with MDA-MB-231 [1], with A549, in the assay with COLO 205 and with A-431 was 25.3 µM in each case. Also, half-maximal inhibition in the assay with PC-3 (IC50) required 25.3 µM.

For the compound `CCN1CCN(C(=O)CCC(=O)O[C@@H]2O[C@@H]3O[C@]4(C)CC[C@H]5[C@H](C)CC[C@@H]([C@H]2C)[C@@]35OO4)CC1`, the GI50 (in the assay with HL-60; in the assay on P388/ADR; in [2]) was 0.231 µM in each case.

For the compound `Cc1cn([C@H]2C[C@H](n3cc(CNC(=O)CC(C)CC(=O)O[C@@H]4O[C@@H]5O[C@@]6(C)CC[C@H]7[C@H](C)CC[C@@H]([C@H]4C)[C@@]57OO6)nn3)[C@@H](CO)O2)c(=O)[nH]c1=O` (stereo partly drawn), the IC50 in the assay with HepG2 and with KB was 47.6 µM throughout.

For `CC(C)N1CCN(C(=O)CCC(=O)O[C@@H]2O[C@@H]3O[C@]4(C)CC[C@H]5[C@H](C)CC[C@@H]([C@H]2C)[C@@]35OO4)CC1`, the GI50 (with HL-60; in the assay with P388/ADR; in assay [2]) was 0.231 µM in each case.

As for `C[C@H]1[C@H](OC(=O)CCC(=O)N2CCN(c3ccccc3)CC2)O[C@@H]2O[C@]3(C)CC[C@H]4[C@H](C)CC[C@@H]1[C@@]24OO3`, the GI50 (in the assay with HL-60; with P388/ADR; in [2]) was 0.231 µM each time.

Consider `CC(=O)c1cccc(-n2cc(CO[C@H]3O[C@@H]4O[C@]5(C)OO[C@]46[C@@H](CC[C@@H](C)[C@@H]6C[C@H]5O)[C@H]3C)nn2)c1`, for which the half-maximal inhibitory concentration (IC50) with K562, with HEK293, in the assay with MDA-MB-231 [1], in the assay with A549, in the assay with COLO 205 and with A-431 was 25.3 µM throughout. Also, half-maximal inhibition with PC-3 (IC50) was put at 25.3 µM.

`C[C@H]1[C@H](OC(=O)CCC(=O)N2CCN(C)CC2)O[C@@H]2O[C@]3(C)CC[C@H]4[C@H](C)CC[C@@H]1[C@@]24OO3`: the GI50 (in the assay on HL-60; in the assay with P388/ADR; in assay [2]) was 0.231 µM throughout.

`C[C@H]1[C@@H](OCC(O)Cn2cc(-c3cccc(N)c3)nn2)O[C@@H]2O[C@@]3(C)CC[C@H]4[C@H](C)CC[C@@H]1[C@@]24OO3` (stereo partly drawn): the values for the IC50 in the assay with HepG2 and in the assay on KB were 32.9 µM and 12.5 µM, respectively.

Regarding `COc1cccc2c1C(=O)c1c(O)c3c(c(O)c1C2=O)C[C@@](O)(C(=O)CO)C[C@@H]3O[C@H]1C[C@H](N)[C@H](O)[C@H](C)O1` [DOXORUBICIN], the IC50 (as a rule, the midpoint of a concentration-inhibition curve) in the assay with K562 came to 1.43 µM; in the assay on MDA-MB-231 [3], 0.05 µM; with HEK293, 1.43 µM; with MDA-MB-231 [1] it was 1.43 µM; with HCT-116, 0.05 µM; with COLO 205, 1.43 µM. Moreover, the IC50 in the assay on HT-29 was 0.05 µM; in the assay on A-431, 1.43 µM; in the assay with PC-3 it was 1.43 µM. Besides, the GI50 (usually the concentration giving 50% growth inhibition) with HL-60 amounted to 0.0087 µM; with P388/ADR, 3.73 µM; in assay [2], 0.0087 µM.

The values above are taken from ChEMBL document CHEMBL5244230, “Artemisinin-derived hybrids and their anticancer activity” (Eur J Med Chem, 2020).
